A short description of test [1]: P. falciparum Dd2 growth inhibitors, dose response, SYBR Green, cherry-picked samples (AID 1159567). In kind it is functional, cell-based.
The nature of test [2]: P. falciparum Dd2 growth inhibitors, dose response, SYBR Green, dry powder samples (AID 1159566).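 Also: potency for growth inhibition with lower SYBR green DNA signal.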 Format: functional, cell-based.
Test [3] in a line: P. falciparum 3D7-ScDHODH growth inhibitors, dose response, SYBR Green, dry powder samples (AID 1159570).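 Also: parasite growth measured after 72 hours of compound exposure.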 Format: functional, cell-based.
Test [4] is described as follows: P. falciparum ATP4 D1247Y mutant growth inhibitors, dose response, NITD609-resistant line, SYBR Green, dry powder (AID 1159571).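 Also: parasites synchronized at ring stage by sorbitol before testing.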 Format: functional, cell-based.
Test [5] has as its target T1, Oxysterols receptor LXR-beta (Homo sapiens, UniProt P55055).
T1 sequence (P55055 whole entry): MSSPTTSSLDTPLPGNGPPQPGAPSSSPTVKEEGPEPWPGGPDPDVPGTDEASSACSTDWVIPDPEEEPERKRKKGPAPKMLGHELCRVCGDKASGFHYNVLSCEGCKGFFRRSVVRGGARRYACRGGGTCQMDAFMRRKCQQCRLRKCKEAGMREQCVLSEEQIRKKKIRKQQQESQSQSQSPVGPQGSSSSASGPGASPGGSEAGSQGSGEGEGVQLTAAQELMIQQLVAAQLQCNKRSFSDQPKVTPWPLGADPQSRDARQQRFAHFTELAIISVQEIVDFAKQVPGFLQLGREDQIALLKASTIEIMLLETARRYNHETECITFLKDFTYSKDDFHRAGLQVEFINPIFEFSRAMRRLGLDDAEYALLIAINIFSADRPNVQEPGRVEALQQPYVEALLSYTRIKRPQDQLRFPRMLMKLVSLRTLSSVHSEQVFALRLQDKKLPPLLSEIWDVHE
The test can be described thus: LXR agonists, Gal4 luciferase reporter, dose response, counter-screen for ssDAF-12 agonist project, cell-based, luminescence, HEK293, S. stercoralis campaign (AID 720737). Format: functional. The conditions noted are these: read-out: IC50 (the source's name). (In general: In a reporter assay the amount or activity of a reporter protein is the signal.)

Test [6] in a line: Luminescence-based cell-based high throughput dose response assay to identify activators of the DAF-12 from the parasite S. stercoralis (ssDAF-12). In kind it is functional.
A further test addresses Protein Tat (Human immunodeficiency virus type 1 group M subtype B (isolate HXB2)(HIV-1), UniProt P04608). Format: functional.
A short description of test [7]: inhibitors of Vif binding to APOBEC3G peptide, primary screen, biochemical, TR-FRET, GST-Vif 1-94, biotin-A3G peptide, dose response retest (AID 1117319).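 Also: TR-FRET signal of purified GST-Vif binding a biotinylated A3G peptide; inhibitors lower the FRET signal by blocking Vif and A3G binding.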 Format: functional. Background: Time-resolved FRET reads energy transfer from a long-lived donor to a nearby acceptor.
The next test deals with Trypsin (Sus scrofa, UniProt P00761). Nature of the test: porcine trypsin inhibitors, dose response, selectivity assay for Rce1 protease inhibitor project, biochemical, quenched peptide fluorescence, cherry-pick (AID 488789).
Chain of Trypsin (P00761 whole entry): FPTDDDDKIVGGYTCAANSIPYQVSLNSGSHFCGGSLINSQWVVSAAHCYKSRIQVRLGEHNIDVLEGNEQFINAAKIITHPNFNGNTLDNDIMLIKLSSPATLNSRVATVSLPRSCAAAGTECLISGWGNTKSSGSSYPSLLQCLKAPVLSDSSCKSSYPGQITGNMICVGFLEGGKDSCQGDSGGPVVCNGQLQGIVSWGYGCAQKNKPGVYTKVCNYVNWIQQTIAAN
For a further test, the target named is T2, CAAX prenyl protease 2 (Saccharomyces cerevisiae S288c, UniProt Q03530).
T2 sequence (Q03530 whole entry): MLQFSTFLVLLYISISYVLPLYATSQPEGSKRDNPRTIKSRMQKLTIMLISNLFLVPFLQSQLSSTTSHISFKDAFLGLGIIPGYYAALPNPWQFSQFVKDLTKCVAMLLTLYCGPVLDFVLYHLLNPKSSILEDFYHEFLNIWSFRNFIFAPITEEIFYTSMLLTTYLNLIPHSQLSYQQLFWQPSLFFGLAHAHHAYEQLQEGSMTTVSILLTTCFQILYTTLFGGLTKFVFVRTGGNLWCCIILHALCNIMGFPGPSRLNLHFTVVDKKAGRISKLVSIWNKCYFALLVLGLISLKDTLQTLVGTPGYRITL
Format: biochemical.

The nature of test [8]: NIH:OVCAR-3 ovarian cancer cell cytotoxicity, dose response, PAX8 inhibitor project, plate reader, dry powder samples (AID 743044). In kind it is functional, cell-based.
A short description of test [9]: IOSE-T80 ovarian epithelial cell cytotoxicity, dose response, cytotoxicity control for PAX8 inhibitor project, plate reader, dry powder samples (AID 743045). Format: functional, cell-based.
The nature of test [10]: HepG2 cell cytotoxicity, dose response, cytotoxicity control, cherry-picked samples (AID 1159577). Format: functional, cell-based.
The nature of test [11]: cytotoxicity in OVCAR8 ovarian cancer cells, dose response, PAX8 project, cell-based, plate reader, dry powder samples (AID 743197). In kind it is functional. The following applies: OVCAR-8.
A further test has as its target Paired box protein Pax-8 (Homo sapiens, UniProt Q06710). The test can be described thus: inhibitors of PAX8-driven TPO luciferase reporter, dose response, RMG-I cells, cherry-pick (AID 687027).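 Also: luciferase reporter driven by Pax8 target thyroperoxidase promoter measured by SteadyGlo luminescence.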 Format: functional, cell-based.
Test [12] can be described thus: IGROV1 ovarian cancer cell cytotoxicity, dose response, PAX8 inhibitor project, plate reader, dry powder samples (AID 743043). The conditions noted are these: IGROV-1. Format: functional, cell-based.
Test [13] is described as follows: cytotoxicity toward Colo320 cells – cell-based, CellTiter-Glo luminescence, IC50, dose response (AID 1117334). Format: functional. The following applies: COLO 320. On the technique in general: Cellular ATP, detected with luciferase, serves as a proxy for viable cell number.
Test [14] can be described thus: SNU-C1 cell viability reduction, dose response, CellTiter-Glo luminescence (AID 1117323). In kind it is functional, cell-based.
Test [15] can be described thus: RKO cell viability reduction, dose response, CellTiter-Glo luminescence (AID 1117322). In kind it is functional.
Test [16] in a line: CellTiter-Glo luminescent dose response of DLD-1 viability loss (AID 1117352). Format: functional.
Test [17] in a line: Concentration-dependent survival of SW480 colon cancer line, luminescence detection with CellTiter-Glo, half-maximal inhibitory concentration (AID 1117338). In kind it is functional.
Test [18] in a line: cytotoxicity toward HT-29 cells – cell-based, CellTiter-Glo luminescence, IC50, dose response (AID 1117330). In kind it is functional.
A short description of test [19]: cytotoxicity toward HCT116 cells – cell-based, CellTiter-Glo luminescence, IC50, dose response (AID 1117332). In kind it is functional. The conditions noted are these: HCT-116.
The nature of test [20]: P. falciparum Dd2 growth inhibitors, dose response, SYBR Green, dry powder samples, set 9 (AID 1159568). Format: functional, cell-based.
Test [21] can be described thus: A2780 ovarian cancer cell cytotoxicity, dose response, cytotoxicity control, plate reader, dry powder samples (AID 743046). In kind it is functional, cell-based.
The target of a further test is Genome polyprotein (dengue virus type 2, UniProt P29990). The test can be described thus: Dengue-2 NS5 methyltransferase inhibitors, primary screen, biochemical, confirmation dose response (AID 588689). In kind it is functional.
Chain of Genome polyprotein (P29990 2492-3391 limits assumed): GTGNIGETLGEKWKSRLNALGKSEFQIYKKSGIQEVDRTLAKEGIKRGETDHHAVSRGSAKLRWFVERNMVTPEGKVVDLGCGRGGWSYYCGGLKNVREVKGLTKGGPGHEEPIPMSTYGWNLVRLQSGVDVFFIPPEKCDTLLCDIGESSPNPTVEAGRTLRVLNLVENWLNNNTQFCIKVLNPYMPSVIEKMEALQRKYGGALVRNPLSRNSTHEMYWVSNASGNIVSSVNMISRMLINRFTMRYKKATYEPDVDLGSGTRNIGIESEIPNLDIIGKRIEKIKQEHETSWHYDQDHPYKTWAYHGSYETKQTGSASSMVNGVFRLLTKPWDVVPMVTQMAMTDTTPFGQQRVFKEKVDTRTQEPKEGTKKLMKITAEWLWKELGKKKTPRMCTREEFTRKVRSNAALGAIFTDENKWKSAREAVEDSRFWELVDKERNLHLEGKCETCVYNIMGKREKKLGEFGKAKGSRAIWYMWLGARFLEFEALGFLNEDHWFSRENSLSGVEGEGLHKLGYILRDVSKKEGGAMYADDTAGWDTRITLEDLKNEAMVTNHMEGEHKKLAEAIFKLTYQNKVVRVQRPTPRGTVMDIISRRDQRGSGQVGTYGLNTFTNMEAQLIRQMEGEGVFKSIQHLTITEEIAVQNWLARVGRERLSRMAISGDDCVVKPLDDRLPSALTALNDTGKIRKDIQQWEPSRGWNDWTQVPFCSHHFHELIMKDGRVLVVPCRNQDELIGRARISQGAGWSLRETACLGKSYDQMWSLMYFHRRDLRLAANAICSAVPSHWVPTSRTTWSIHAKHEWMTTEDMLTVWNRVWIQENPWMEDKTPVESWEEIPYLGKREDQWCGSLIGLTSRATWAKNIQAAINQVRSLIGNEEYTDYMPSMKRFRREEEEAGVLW

Active and inactive are the calls of the source. Some results are limits rather than exact numbers.

Chain of Paired box protein Pax-8 (Q06710 whole entry): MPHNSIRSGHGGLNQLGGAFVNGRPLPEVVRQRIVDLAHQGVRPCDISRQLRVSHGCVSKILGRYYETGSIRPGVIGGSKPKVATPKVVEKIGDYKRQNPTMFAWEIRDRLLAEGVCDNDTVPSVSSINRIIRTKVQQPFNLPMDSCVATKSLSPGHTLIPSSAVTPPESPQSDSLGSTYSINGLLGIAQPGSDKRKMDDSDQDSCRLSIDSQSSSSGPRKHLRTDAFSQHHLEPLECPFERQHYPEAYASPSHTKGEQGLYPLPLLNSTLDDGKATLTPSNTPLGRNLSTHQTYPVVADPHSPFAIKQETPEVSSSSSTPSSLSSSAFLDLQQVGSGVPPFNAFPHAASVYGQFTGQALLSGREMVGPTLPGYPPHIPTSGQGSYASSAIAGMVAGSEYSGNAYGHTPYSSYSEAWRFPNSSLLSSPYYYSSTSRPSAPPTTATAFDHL
Chain of Protein Tat (P04608 whole entry): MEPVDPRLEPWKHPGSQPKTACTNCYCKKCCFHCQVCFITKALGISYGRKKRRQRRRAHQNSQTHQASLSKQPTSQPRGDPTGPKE

`OC[C@H]1[C@@H](c2ccc(-c3cccnc3)cc2)[C@@H]2CN(CC3CC3)CCCCN12`: the AC50 in test [1] is 2.12 µM (active); in test [2], 1.8 µM (active); in test [3] it was 1.9 µM (active); in test [4], 2.65 µM (active).

Consider `CC1(C)NC(=S)C(C)(C)N1N=O`, for which, in [5], the EC50 is > 67.5 µM (inactive). Further, the IC50 in test [6] was > 67.5 µM (inactive).

Turning to `O=C(O)c1cc(-c2ccc(N3CCOCC3)cc2)nn1-c1ccc(F)cc1F`, the IC50 (at Protein Tat; in test [7]) was > 100 µM (active) in each case. Further, the concentration at half-maximal activity (AC50) was 6.65 µM (active) on Trypsin and 13.5 µM (active) on CAAX prenyl protease 2.

Turning to `COc1ccccc1NC(=O)N1CCCCN2[C@@H](CO)[C@@H](c3ccc(-c4cccc(C)c4)cc3)[C@@H]2C1`, the AC50 in test [8] was 31.6 µM (active); in test [9], 67.5 µM (active); in [10], 11.2 µM (active); in test [1] it was 1.43 µM (active); in test [11], 68.6 µM (active); at Paired box protein Pax-8, 13.2 µM (active). Also, the AC50 in test [12] is 28.4 µM (active).

On to `CCOC(=O)Oc1ccc(CCNC(=O)[C@H](CCSC)NC(C)=O)cc1OC(=O)OCC` [DOCARPAMINE], for which the IC50 in [13], in [14], in test [15], in [16], in [17] and in test [18] was > 20 µM (inactive) each time. The IC50 in test [19] is > 20 µM (inactive).

For the compound `CCCNC(=O)N1[C@H](C#N)[C@H](c2ccccc2-c2cccc(C)c2)[C@@H]1CO`, the AC50 in test [20] was 7.01 µM (active).

For the compound `COc1ccc(C(=O)Nc2ccc3ccccc3c2)c(OC)c1`, in test [5], the EC50 is > 67.5 µM (inactive). In [6], the IC50 is > 67.5 µM (inactive).

For the compound `C[C@H]1CN([C@@H](C)CO)S(=O)(=O)c2ccc(C#Cc3ccncc3)cc2O[C@@H]1CN(C)C(=O)Nc1ccc2c(c1)OCO2`, the AC50 in test [21] is 1.49 µM (active); in test [8], 1.48 µM (active); in test [9] it was 3.88 µM (active); in test [11], 1.89 µM (active); at Paired box protein Pax-8, 0.264 µM (active); in test [12], 1.23 µM (active).

Turning to `O=C(O)c1[nH]c2ccccc2c1C(c1cc(Br)ccc1O)c1c(C(=O)O)[nH]c2ccccc12`, the AC50 in the test “cells” is 9.21 µM (active). For the same compound, the IC50 at Genome polyprotein is 16 µM (active).

By AC50 is commonly meant the midpoint of the concentration-response curve, whichever way the signal moves. Usually IC50 stands for the midpoint of a concentration-inhibition curve.

Values taken from ChEMBL document CHEMBL1201862, “PubChem BioAssay data set” (2004).
